Article PMC5298231, “The Malaria Parasite's Lactate Transporter PfFNT Is the Target of Antiplasmodial Compounds Identified in Whole Cell Phenotypic Screens” (PLoS Pathogens, 2017)

System: erythrocytes infected with 3D7 trophozoites
Format: cell-based, Plasmodium falciparum

For COc1ccc2c(c1)OC(O)(C(F)(F)C(F)(F)F)CC2=O (stereo not shown) [MMV007839], the “Ribose-5-Phosphate, Average” value (1hr) was 0.9115, the “S-Adenosyl-L-homocysteine, Average” value (1hr) was -0.1282 and the “SDGLA, Average” value (1hr) was -0.148. For the same molecule, the “SFGD, Average” value (1hr) was -0.0354, the “Sedoheptulose-1/7-Phosphate, Average” value (1hr) was 0.1578 and the “Serine, Average” value (1hr) was 0.004434. For the same molecule, the “Succinate Semialdehyde, Average” value (1hr) was -0.3802, the “Succinate, Average” value (1hr) was 0.4975 and the “TNVK, Average” value (1hr) was -0.9736. For the same molecule, the “Threonine, Average” value (1hr) was 0.4202, the “Tryptophan, Average” value (1hr) was 0.09509 and the “Tyrosine, Average” value (1hr) was 0.1697. For the same molecule, the “UDP, Average” value (1hr) was -0.1565, the “UDP-N-acetyl-D-glucosamine, Average” value (1hr) was 0.0845 and the “UDP-glucose, Average” value (1hr) was -0.08513. The “UMP, Average” value (1hr) was -0.3602, the “Uracil, Average” value (1hr) was -0.4869 and the “Valine, Average” value (1hr) was 0.1364. For the same molecule, the “Xanthine, Average” value (1hr) was 0.3309, the “dADP, Average” value (1hr) was -0.3244 and the “dATP, Average” value (1hr) was 0.05147. For the same molecule, the “dCDP, Average” value (1hr) was 0.3024, the “dGMP, Average” value (1hr) was 0.08489 and the “dTMP, Average” value (1hr) was -0.02247. For the same molecule, the “dTTP, Average” value (1hr) was 0.2046, the “dUMP, Average” value (1hr) was 1.26 and the “myo-Inositol, Average” value (1hr) was -0.07002. For the same molecule, the “sn-Glycerol 3-Phosphate, Average” value (1hr) was 1.379, the “sn-glycero-3-Phospho-1-inositol, Average” value (1hr) was -0.128 and the “1-3 (2-3)-Bisphopshateglycerate, Average” value (3hr) was 0.8355. For the same molecule, the “2-Hydroxyglutarate, Average” value (3hr) was -0.6103, the “2-Ketoglutarate, Average” value (3hr) was -0.8232 and the “3-Phoshoglycerate, Average” value (3hr) was 0.07426. The “3-Phospho-serine, Average” value (3hr) was -0.4035, the “4-Aminobutanoate, Average” value (3hr) was 0.8488 and the “5-Phosphoribosyl-Pyrophosphate, Average” value (3hr) was 0.5077. For the same molecule, the “6-Phosphogluconate, Average” value (3hr) was -0.2282, the “ADP, Average” value (3hr) was -0.7166 and the “AMP, Average” value (3hr) was -0.5704. For the same molecule, the “ATLS, Average” value (3hr) was -0.2347, the “ATP, Average” value (3hr) was -0.2177 and the “Acetyl-CoA, Average” value (3hr) was -0.7235. For the same molecule, the “Acetyl-L-alanine, Average” value (3hr) was -0.3599, the “Adenine, Average” value (3hr) was -0.8446 and the “Arginine, Average” value (3hr) was 0.2396. For the same molecule, the “Asparagine, Average” value (3hr) was -0.1753, the “Aspartate, Average” value (3hr) was -0.3736 and the “CDP, Average” value (3hr) was -0.5752. The “CDP-ethanolamine, Average” value (3hr) was 0.02366, the “CMP, Average” value (3hr) was -0.08882 and the “CTP, Average” value (3hr) was -0.3119. For the same molecule, the “Cholesteryl sulfate, Average” value (3hr) was -0.1335, the “Citrate, Average” value (3hr) was -0.1028 and the “CoA, Average” value (3hr) was -0.556. For the same molecule, the “Cyclic AMP, Average” value (3hr) was -0.7854, the “Cytidine, Average” value (3hr) was -0.2914 and the “DALT, Average” value (3hr) was -0.8981. For the same molecule, the “DEVG, Average” value (3hr) was -0.08263, the “DGLA, Average” value (3hr) was -0.7349 and the “DLS, Average” value (3hr) was -0.6175. The “Deoxycytidine, Average” value (3hr) was 1.594, the “Dihydroorotate, Average” value (3hr) was -1.064 and the “ESFG, Average” value (3hr) was -0.07747. For the same molecule, the “EVGG, Average” value (3hr) was -0.1694, the “Erythrose 4-Phosphate, Average” value (3hr) was -0.2579 and the “FAD, Average” value (3hr) was -0.4239. For the same molecule, the “FMN, Average” value (3hr) was -0.4985, the “Farnesyl diphosphate, Average” value (3hr) was -0.04123 and the “Folate, Average” value (3hr) was -0.3602. For the same molecule, the “Fructose-1-6-Bisphosphate, Average” value (3hr) was 1.146, the “Fructose-6-Phosphate, Average” value (3hr) was 0.05598 and the “GDP, Average” value (3hr) was -1.202. For the same molecule, the “GDP-mannose, Average” value (3hr) was -0.4414, the “GMP, Average” value (3hr) was -1.665 and the “GTP, Average” value (3hr) was -0.7051. For the same molecule, the “Geranylgeranyl pyrophosphate, Average” value (3hr) was -0.6827, the “Glucono-1-4-Lactone, Average” value (3hr) was 1.992 and the “Glucose-6-Phosphate, Average” value (3hr) was -0.3489. The “Glutamate, Average” value (3hr) was -0.07518, the “Glutamine, Average” value (3hr) was 0.8027 and the “Glutathione Disulfide, Average” value (3hr) was -0.1266. The “Glutathione, Average” value (3hr) was -0.02749, the “Glyceraldehyde 3-Phosphate, Average” value (3hr) was -0.5897 and the “Glycerone Phosphate, Average” value (3hr) was 0.4029. The “HLD, Average” value (3hr) was -0.9223, the “HVDD, Average” value (3hr) was -1.392 and the “Histidine, Average” value (3hr) was 0.6908. The “Homoserine, Average” value (3hr) was 0.249, the “Hydroxy-L-proline, Average” value (3hr) was 0.1081 and the “Hypoxanthine, Average” value (3hr) was 0.2683. The “IDP, Average” value (3hr) was 0.1036, the “IMP, Average” value (3hr) was -0.04113 and the “Inosine, Average” value (3hr) was 0.2492. For the same molecule, the “Isoleucine, Average” value (3hr) was 0.01345, the “LD, Average” value (3hr) was 0.008648 and the “Lactate, Average” value (3hr) was 2.632. The “Leucine, Average” value (3hr) was -0.1293, the “Lysine, Average” value (3hr) was 0.8307 and the “Malate, Average” value (3hr) was -0.2233. For the same molecule, the “Mannitol, Average” value (3hr) was -0.2308, the “Methionine, Average” value (3hr) was -0.1652 and the “Myristic acid, Average” value (3hr) was -0.3456. For the same molecule, the “N-Acetyl-glutamate, Average” value (3hr) was -0.8123, the “N-Carbamoyl-L-Aspartate, Average” value (3hr) was -1.502 and the “NAD+, Average” value (3hr) was 0.03216. For the same molecule, the “NADH, Average” value (3hr) was -1.72.
